# Assays:
# [1] = test system: Patient 155 TRFP secondary primed T cells; assay: In vitro induction of T cell non-responsiveness, then proliferation on antigenic challenge; assay type: cell-based, human; conditions: label = tolerance treatment
# Protocol: Patient 155 TRFP secondary primed T cells (2.5×10^6) were rested and cultured with (2.5×10^6) irradiated autologous Epstein Barr Virus transformed B cells (EBV) in 1 ml of complete RPMI with 10% AB serum in 12×75 mm polypropylene snap cap tubes and increasing amounts of antigen over 5 consecutive days. The T cell cultures were exposed to 5 μg/ml purified native TRFP on day 0 and 5 μg/ml, 10 μg/ml, 10 μg/ml and 20 μg/ml thereafter. The peptide treated cultures were exposed to 1 μg/ml peptide on day 0 and 1 μg/ml, 1 μg/ml, 2 μg/ml and 5 μg/ml thereafter. In addition, 0.5 ml of fresh media was replaced on day 2. The cells were then washed and set up for a proliferation assay with 2×10^4 T cells and 2×10^4 irradiated (2500 Rad) autologous EBV and various doses of antigen. T cell proliferation was measured as incorporation of tritiated thymidine at day 9.
# [2] = test system: Human T cell lines from four cat allergic patients; assay: IL-2 and IL-4 production by TRFP-primed T cell lines of four cat allergic patients; assay type: cell-based; conditions: panel of four patients 688, 730, 738, 807
# Protocol: Human T cell lines from four cat allergic patients (patients 688, 730, 738, and 807) were isolated. Heparinized peripheral blood specimens were obtained from cat allergic patients and the mononuclear cell fraction was purified by Ficoll-Hypaque centrifugation. An aliquot of these cells (2×10^6) was stimulated in vitro with purified native TRFP (10 μg/ml) and grown in the presence of recombinant IL-2 and IL-4. The T cell line was then rested in culture until ready for secondary proliferation assay. Two×10^4 cells were cultured in 200 μl medium containing various concentrations of test antigens with 5×10^4 γ-irradiated autologous Epstein-Barr Virus transformed cells as antigen presenting cells. After 3 days of culture, each microwell was pulsed overnight with 1 μCurie tritiated thymidine, and the amount of radioactivity incorporated was measured by liquid scintillation counting. The stimulation index (S.I.) for each antigen was then calculated. […] The IL-2 in the medium was measured by proliferation of the IL-2 dependent T cell line, […]. […] IL-4 was measured by an ELISA purchased from R&D Systems, Minneapolis, Minn. […] The stimulation indices for IL-2 and IL-4 production were calculated by dividing the amount of IL-2 or IL-4 contained in the medium from stimulated T cells divided by the amount of IL-2 or IL04 released by non-stimulated T cells.
# human IgE [3] = assay: ELISA of human IgE binding, plasma from patient #669; conditions: patient #669 plasma
# Protocol: Corning assay plates (#25882-96) were coated with 10 μg/ml of each coating antigen (i.e., TRFP, chain 1 (recombinant chain 1 of TRFP), chain 2 (recombinant chain 2 of TRFP), peptide XYZ, peptide XZY, peptide YXZ, peptide YZX, peptide ZXY and peptide ZYX) listed in FIG. 34 at 50 μl/well and incubated overnight at 4° C. The coating antigens were removed and the wells were blocked with 0.5% gelatin in PBS, 200 μl/well for 2 hours at room temperature. Plasma from patient #669 was serially diluted with PBS-Tween 20 (PBS with 0.05% nonionic detergent Tween-20 Sigma, St. Louis Mo.) and 100 μl/well was added and incubated overnight at 4° C. (plasma dilutions are tested in duplicate). The second antibody (biotinylated goat anti-Human IgE, 1:1000, Kirkegaard & Perry Laboratories Inc. Gaithersburg, Md.), was added at 100 μl/well for one hour at room temperature. This solution was removed and streptavidin-HRPO, 1:10,000 (Southern Biotechnology Associates, Inc., Birmingham, Ala.) was then added at 100 μl/well for one hour at room temperature (all wells were washed three times with PBS-Tween between each incubation step). TMB Membrane Peroxidase Substrate system (Kirkegaard & Perry Laboratories) was freshly mixed, and added at 100 μl/well. The color was allowed to develop for 2-5 minutes. The reaction was stopped by the addition of 100 μl/well of 1M phosphoric acid. Plates were read on a Microplate EL 310 Autoreader (Biotek Instruments, Winooski, Vt.) with a 450 nm filter. The absorbance levels of duplicate wells were averaged.
# human IgE [4] = assay: SDS/PAGE Western immunoblot of human IgE binding, plasma from patient #417; conditions: patient #417 plasma
# Protocol: Western immunoblot analysis of the peptides produced in above was performed. The concentration of all protein samples (e.g., TRFP, recombinant chain 1 of TRFP, recombinant chain 2 of TRFP, peptide XYZ, peptide XZY, peptide YXZ, peptide YZX, peptide ZXY and peptide ZYX) for gel electrophoresis was determined by the BCA method (Pierce Co.). All protein samples were loaded on the gel at 5 μg/lane except TRFP at 10 μg/lane. Protein separation was carried out on a 15% acrylamide gel, and transfer was performed by electroblotting at 1.5 Amps for 1.5 hours onto nitrocellulose paper (Schleicher and Schuell, 0.1 microns) in a Hoeffer apparatus according to the protocol of Towbin, H., T. Stachlin, and J. Gordon, PNAS 76:4350 (1979). Proteins were rinsed in blot solution (25 mM Tris-HCl 7.5, 0.171 M NaCl and 0.5 ml/liter Tween 20). The blot was then blocked for one hour in blocking solution (1% milk in blot solution). Plasma from patient #417, used as a primary antibody source, was diluted in blocking solution to 10% and preabsorbed for 1.5 hours with unused nitrocellulose (2 cm×15 cm). The prepared human plasma was then incubated overnight on an orbital shaker with the protein blot section of interest. Following the first antibody incubation the blot section was washed three times, each wash involved a fifteen minute incubation in blot solution. The second antibody, specific for human IgE (biotinylated goat anti-human IgE, KPL Inc.), was diluted 1:2500 in blot solution and the incubation proceeded for two hours. Excess second antibody was subsequently removed by three 15 minute incubations with blot solution. ^125I Iodinated streptavidin (Amersham) was diluted 1:2500 in blot solution and incubated with blots for 1 hour, at 2 μCi in a 50 ml incubation volume. Blot sections were then washed with blot solution until the detectable radioactivity in the waste solution decreased to background levels. The blot section was then wrapped in saran wrap and exposed to film overnight with a cronex intensifying screen at −80° C.
Substance,T cell proliferation following antigenic challenge ([1]; challenge with Fel 8-3),T cell proliferation following antigenic challenge ([1]; challenge with Ragweed Peptide),T cell proliferation following antigenic challenge ([1]; challenge with TRFP),T cell proliferation following antigenic challenge ([1]; no antigenic challenge (—)),IL-4 versus IL-2 production [2],"IgE binding, ELISA (human IgE [3])","IgE binding, Western immunoblot (human IgE [4])"
peptide X: amino acid residues 7-30 from chain 1 of TRFP (SEQ. ID. NO: 17); Table 2 lists Fel 8-3 as 7-33 (KRDVDLFLTGTPDEYVEQVAQYKALPV),"3,850 cmp","5,130 cmp","12,320 cmp","1,270 cmp",,,
"NARILKNCVDAKMTEEDKE [Fel 4, TRFP chain 1 amino acids 37-55]",,,,,induces more IL-4 than IL-2,,
recombinant chain 1: recombinant TRFP chain 1 expressed in E. coli,,,,,,somewhat lower binding,strong IgE binding
TRFP: human T cell reactive feline protein affinity purified from house dust; two covalently linked chains,"36,030 cmp","6,670 cmp","33,160 cmp","2,190 cmp",favors IL-4 as opposed to IL-2,high level of IgE binding,reactivity
